Each molecule was assayed against Human CARM1 (PRMT4) (Homo sapiens (Human), UniProt Q86X55) (assay: CARM1 enzyme assay on peptide substrate (3H-SAM Flashplate)). Conditions: Biochemical potencies, classification codes; read-out: Biochem IC50.
Sequence of Human CARM1 (PRMT4) (Q86X55 other isoform, or with tags, fused parts or gaps isoform Q86X55-1): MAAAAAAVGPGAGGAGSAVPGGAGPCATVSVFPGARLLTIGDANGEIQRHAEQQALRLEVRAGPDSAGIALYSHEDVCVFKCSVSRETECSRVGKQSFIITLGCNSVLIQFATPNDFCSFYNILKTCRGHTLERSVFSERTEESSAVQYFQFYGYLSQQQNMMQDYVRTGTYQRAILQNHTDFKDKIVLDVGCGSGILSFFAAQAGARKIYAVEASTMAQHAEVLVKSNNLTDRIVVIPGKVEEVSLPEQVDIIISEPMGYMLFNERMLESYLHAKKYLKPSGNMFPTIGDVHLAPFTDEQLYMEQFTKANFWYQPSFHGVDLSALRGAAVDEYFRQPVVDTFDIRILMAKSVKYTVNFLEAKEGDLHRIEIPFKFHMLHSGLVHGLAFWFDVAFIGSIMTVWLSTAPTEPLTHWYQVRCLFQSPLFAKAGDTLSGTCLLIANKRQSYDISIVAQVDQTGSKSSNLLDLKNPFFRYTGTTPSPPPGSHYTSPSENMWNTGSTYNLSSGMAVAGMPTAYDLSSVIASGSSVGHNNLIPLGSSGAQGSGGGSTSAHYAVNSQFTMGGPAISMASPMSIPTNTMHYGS

SMILES	IC50
CNCC(O)COc1cccc(-c2nc(OCC3CCN(C4CC4)CC3)c(C)c(-c3c(C)noc3C)n2)c1 (stereo not drawn) [Example 303-1a]	< 100 nM
CNC[C@@H](O)COc1ccc(F)c(-c2nc(-c3c(C)noc3C)c(C)c(N3Cc4cccnc4C3)n2)c1 [Example 114-3]	< 100 nM
CNC[C@@H](O)COc1ccc(Cl)c(-c2nc(N[C@@H]3CCN(C(=O)OC)[C@@H](C)C3)c(C)c(-c3c(C)noc3C)n2)c1 [Example 101-3]	< 100 nM
CNCC(O)COc1cccc(-c2nc(-c3c(C)noc3C)c(C)c(N3CCO[C@@H](CN(C)C(=O)N(C)C)C3)n2)c1 (stereo partly drawn) [Example 176-1a]	< 100 nM
CNC[C@@H](O)COc1ccc(Cl)c(-c2nc(N[C@H]3CN(C(=O)OC)C[C@@H]3F)c(C)c(-c3c(C)noc3C)n2)c1 [Example 202-3]	< 100 nM
CNC[C@@H](O)COc1ccc(Cl)c(-c2nc(-c3c(C)noc3C)c(C)c(N3CC4CC4C3)n2)c1 (stereo partly drawn) [Example 235-3]	< 100 nM
CNCC(O)COc1cccc(-c2nc(-c3c(C)nn(C)c3C)cc(N(C)C3CCOCC3)n2)c1 (stereo not drawn) [Example 528-1a]	< 100 nM
CNC[C@H](O)COc1ccc(Cl)c(-c2nc(-c3c(C)noc3C)c(C)c(N3CCC4(CCN(C5CC5)C4)C3)n2)c1 (stereo partly drawn) [Example 138-1a]	< 100 nM
CNC[C@H](O)COc1ccc(Cl)c(-c2nc(N[C@H]3C[C@@H](OC)C3)c(C)c(-c3c(C)noc3C)n2)c1 [Example 54-3]	< 100 nM
CNC[C@H](O)COc1ccc(Cl)c(-c2nc(-c3c(C)noc3C)c(C)c(N(C)[C@H]3C[C@@](C)(OC)C3)n2)c1 [Example 95-3]	< 100 nM
CNC[C@@H](O)COc1ccc(F)c(-c2nc(-c3c(C)noc3C)c(C)c(N3Cc4cc(Cl)cnc4C3)n2)c1 [Example 185-3]	< 100 nM
CNCC(O)COc1cccc(-c2nc(-c3c(C)noc3C)c(C)c(N3CCC4(CC3)CN(C(=O)N(C)C)C4)n2)c1 (stereo not drawn) [Example 252-1a]	< 100 nM
CNCC(O)COc1cccc(-c2nc(N[C@H]3C[C@H]4CC[C@@H](C3)N4C(=O)OC)c(C)c(-c3c(C)noc3C)n2)c1 (stereo partly drawn) [Example 266-1a]	< 100 nM
CCOC(=O)N1CCC[C@H]1CCNc1nc(-c2cc(OC[C@H](O)CNC)ccc2Cl)nc(-c2c(C)noc2C)c1C [Example 137-3]	< 100 nM
CNC[C@@H](O)COc1ccc(F)c(-c2nc(-c3c(C)noc3C)c(C)c(N3CC4(CCN(C(=O)OC(C)C)CC4)C3)n2)c1 [Example 281-3]	< 100 nM
CNCC(O)COc1cccc(-c2nc(N[C@@H]3CCOC3)c(C)c(N(C)C3CCN(C)CC3)n2)c1 (stereo partly drawn) [Example 379-1a]	< 100 nM
CNCC(O)COc1cccc(-c2nc(N[C@@H]3CCOC3)c(C)c(N3CCC(n4nc(C)cc4C)C3)n2)c1 (stereo partly drawn) [Example 468-1a]	< 100 nM
CNC[C@@H](O)COc1ccc(Cl)c(-c2nc(-c3c(C)noc3C)cc(N3CC4(CCOCC4)C3)n2)c1 [Example 249-3]	< 100 nM
CNCC(O)COc1cccc(-c2nc(NCC3CCN(C(=O)N(C)C)CC3)c(C)c(-c3c(C)noc3C)n2)c1 (stereo not drawn) [Example 248-1a]	< 100 nM
CNCC(O)COc1cccc(-c2nc(N[C@@H]3CCOC3)c(C)c(-n3nc(C)cc3C)n2)c1 (stereo partly drawn) [Example 382-1a]	< 100 nM
CNCC(O)COc1cccc(-c2nc(N[C@@H]3CCOC3)c(C)c(N3CCn4ccnc4C3)n2)c1 (stereo partly drawn) [Example 359-1a]	< 100 nM

SMILES	IC50
CNCC(O)COc1cccc(-c2nc(N[C@H]3CCC[C@@H](O)C3)c(C)c(-c3c(C)noc3C)n2)c1 (stereo partly drawn) [Example 10-3]	< 100 nM
CNC[C@@H](O)COc1ccc(F)c(-c2nc(-c3c(C)noc3C)cc(N3CC4(CCOCC4)C3)n2)c1 [Example 277-3]	< 100 nM
CNCC(O)COc1cccc(-c2nc(NC3CCCC3)c(C)c(-c3c(C)noc3C)n2)c1 (stereo not drawn) [Example 241-1a]	< 100 nM
CNCC(O)COc1cccc(-c2nc(NC3(C)CCOCC3)c(F)c(-c3c(C)noc3C)n2)c1 (stereo not drawn) [Example 159-1a]	< 100 nM
CNCC(O)COc1cccc(-c2nc(-c3c(C)noc3C)c(C)c(N3CCN(Cc4ccccc4)C(C(F)F)C3)n2)c1 (stereo not drawn) [Example 235-1a]	< 100 nM
CCOC(=O)N1CCCC(CNc2nc(-c3cccc(OCC(O)CNC)c3)nc(-c3c(C)noc3C)c2C)C1 (stereo not drawn) [Example 194-1a]	< 100 nM
CNCC(O)COc1cc(Cl)cc(-c2nc(-c3ccc(N(C)C)nc3)c(C)c(N(C)C3CCOCC3)n2)c1 (stereo not drawn) [Example 614-1a]	< 100 nM
CNCC(O)COc1cccc(-c2nc(SC)cc(N(C)C3CCOCC3)n2)c1 (stereo not drawn) [Example 573-1a]	< 100 nM
CNCC(O)COc1cccc(-c2nc(NC3CCN(C(=O)OC)CC3)c(C)c(-c3c(C)noc3C)n2)c1 (stereo not drawn) [Example 118-1a]	< 100 nM
CNC[C@H](O)COc1ccc(Cl)c(-c2nc(N[C@@H]3CCN(C(=O)OC)[C@@H](C)C3)c(C)c(-c3c(C)noc3C)n2)c1 [Example 66-3]	< 100 nM
CNCC(O)COc1cccc(-c2nc(NC3CCOCC3)cc(-c3cccc4ncccc34)n2)c1 (stereo not drawn) [Example 53-1]	< 100 nM
CNC[C@@H](O)COc1ccc(Cl)c(-c2nc(NC[C@H]3CCCO3)c(Cl)c(-c3c(C)noc3C)n2)c1 [Example 215-3]	< 100 nM
CNC[C@@H](O)COc1ccc(Cl)c(-c2nc(-c3c(C)noc3C)c(C)c(N3CCc4nn(C)cc4C3)n2)c1 [Example 122-3]	< 100 nM
CNC[C@@H](O)COc1ccc(Cl)c(-c2nc(-c3c(C)noc3C)c(C)c(N3Cc4cc(Br)cnc4C3)n2)c1 [Example 248-3]	< 100 nM
CCOC(=O)N1CC[C@@H](Nc2nc(-c3cc(OC[C@H](O)CNC)ccc3Cl)nc(-c3c(C)noc3C)c2Cl)C1 [Example 129-3]	< 100 nM
CNC[C@H](O)COc1ccc(F)c(-c2nc(NC3CCN(C(=O)OC)CC3)c(C)c(-c3c(C)noc3C)n2)c1 [Example 26-3]	< 100 nM
CCC(=O)NC1CN(c2nc(-c3cccc(OCC(O)CNC)c3)nc(-c3c(C)noc3C)c2C)C1 (stereo not drawn) [Example 14-3]	< 100 nM
CCOC(=O)N1CCC(Nc2nc(-c3cccc(OCC(O)CNC)c3)nc(-c3c(C)noc3C)c2C)C1 (stereo not drawn) [Example 196-1a]	< 100 nM
CCOC(=O)N1CCC[C@H]1CCOc1nc(-c2cc(OC[C@H](O)CNC)ccc2Cl)nc(-c2c(C)noc2C)c1C [Example 221-3]	< 100 nM
CNCC(O)COc1cccc(-c2nc(N[C@@H]3C[C@H]4CC[C@@H](C3)N4C(=O)OC)c(C)c(-c3c(C)noc3C)n2)c1 (stereo partly drawn) [Example 265-1a]	< 100 nM
CNC[C@@H](O)COc1ccc(Cl)c(-c2nc(-c3c(C)noc3C)c(C)c(N3CCC3C)n2)c1 (stereo partly drawn) [Example 207-3]	< 100 nM

SMILES	IC50
CNC[C@@H](O)COc1ccc(Cl)c(-c2nc(-c3c(C)noc3C)cc(N3Cc4nccnc4C3)n2)c1 [Example 251-3]	< 100 nM
CNC[C@@H](O)COc1cccc(-c2nc(NC3CCN(C(=O)OC)CC3)c(C)c(-c3c(C)noc3C)n2)c1 [Example 170-1a]	< 100 nM
CNCC(O)COc1cccc(-c2nc(NC3CCN(C(=O)OC)CC3)cc(-c3c(C)noc3C)n2)c1 (stereo not drawn) [Example 102-1a]	< 100 nM
Cc1noc(C)c1-c1nc(-c2cccc(OCC(O)CN)c2)nc(NC2CCOCC2)c1C (stereo not drawn) [Example 54-1a]	< 100 nM
CNCC(O)COc1cccc(-c2nc(N[C@@H]3CCN(C(=O)OC)C[C@@H]3F)c(C)c(-c3c(C)noc3C)n2)c1 (stereo partly drawn) [Example 225-1a]	< 100 nM
CNCC(O)COc1cccc(-c2nc(-c3c(C)noc3C)c(C)c(N3CCNC(C(F)F)C3)n2)c1 (stereo not drawn) [Example 47-3]	< 100 nM
CCS(=O)(=O)N1CCC(Nc2nc(-c3cccc(OCC(O)CNC)c3)nc(-c3c(C)nsc3C)c2C)CC1 (stereo not drawn) [Example 70-3]	< 100 nM
CNCC(O)COc1cccc(-c2nc(NCC3(C)CCOCC3)c(C)c(-c3c(C)noc3C)n2)c1 (stereo not drawn) [Example 115-1a]	< 100 nM
CNCC(O)COc1cccc(-c2nc(NC3CCOCC3)c(C)c(-c3c(CO)noc3C)n2)c1 (stereo not drawn) [Example 256-3]	< 100 nM
CNC[C@@H](O)COc1ccc(Cl)c(-c2nc(N[C@@H]3C[C@@H](C)O[C@@H](C)C3)c(Cl)c(-c3c(C)noc3C)n2)c1 [Example 183-3]	< 100 nM
CNCC(O)COc1cccc(-c2nc(NC3CCN(C(=O)OC(C)(C)C)C[C@H]3F)c(C)c(-c3c(C)noc3C)n2)c1 (stereo partly drawn) [Example 208-1a]	< 100 nM
CCOC(=O)N1CCOC[C@@H]1CNc1nc(-c2cc(OCC(O)CNC)ccc2Cl)nc(-c2c(C)nsc2C)c1C (stereo partly drawn) [Example 93-3]	< 100 nM
CNC[C@@H](O)COc1ccc(Cl)c(-c2nc(-c3c(C)noc3C)c(Cl)c(N3Cc4cccnc4C3)n2)c1 [Example 168-3]	< 100 nM
CNCC(O)COc1cccc(-c2nc(-c3cn(C)c(C)n3)cc(N(C)C3CCOCC3)n2)c1 (stereo not drawn) [Example 529-1a]	< 100 nM
CNC[C@@H](O)COc1ccc(Cl)c(-c2nc(-c3c(C)noc3C)c(C)c(N3CC4(CCN(C5CC5)CC4)C3)n2)c1 [Example 108-3]	< 100 nM
CNCC(O)COc1cccc(-c2nc(N[C@@H]3CCN(C4CC4)C[C@@H]3F)c(C)c(-c3c(C)noc3C)n2)c1 (stereo partly drawn) [Example 260-1a]	< 100 nM
CNCC(O)COc1cccc(-c2nc(NC3C4COCC43)c(C)c(-c3c(C)noc3C)n2)c1 (stereo not drawn) [Example 212-1a]	< 100 nM
CNCC(O)COc1cccc(-c2nc(N[C@H]3CCOC3)c(C)c(-n3nc(C)cc3C)n2)c1 (stereo partly drawn) [Example 381-1a]	< 100 nM
CCOC(=O)N1CCC2(CC1)CN(c1nc(-c3cc(OC[C@H](O)CNC)ccc3F)nc(-c3c(C)noc3C)c1C)C2 [Example 282-3]	< 100 nM
CNCC(O)COc1cccc(-c2nc(N[C@H]3C[C@@](C)(O)C3)cc(-c3c(C)noc3C)n2)c1 (stereo partly drawn) [Example 67-1a]	< 100 nM
CNCC(O)COc1cccc(-c2nc(N[C@@H]3CCOC3)c(C)c(-c3cncc(C(=O)OC)c3)n2)c1 (stereo partly drawn) [Example 340-1a]	< 100 nM

Reference: patent US20230279020A9, “CARM1 INHIBITORS AND USES THEREOF” (Epizyme, Inc., priority 2013, published 2023)
